From patent EP0028270A1, “Pyrazino-carbazoles, process for their preparation and pharmaceutical compositions containing them” (CASSELLA Aktiengesellschaft, priority 1979, dated 1981)

Tests used:
Tetrabenazin = assay: Tetrabenazine antagonism (antidepressant activity); assay type: in vivo; settings: for ED50: no unit, species or route given, read-out: Tetrabenazin Dosis Antagonismus ED50; for LD50/ED50: ratio of LD50 to tetrabenazine antagonism ED50
Acute toxicity (LD50) = assay type: in vivo; settings: no unit, species or route given

Row | SMILES | ED50 (Tetrabenazin) [mg/kg] | LD50/ED50 (Tetrabenazin) | LD50 (Acute toxicity (LD50)) [mg/kg]
1 | COc1ccc2c(c1)c1c3n2CCN=C3CCC1.Cl [Beispiel 2, 8-Methoxy-2,4,5,6-tetra-hydro-1H-pyrazino[3,2,1-jk]carbazol-Hydrochlorid] | 2 | 18,5 | 37
2 | Cc1ccc2c(c1)c1c3n2CCN=C3CCC1.Cl [Beispiel 1, 8-Methyl-2,4,5,6-tetra-hydro-1H-pyrazino[3,2,1-jk]carbazol-Hydrochlorid] | 4 | 18,0 | 72
3 | Cc1ccc2c(c1)c1c3n2CCNC3CCC1.Cl (centres unmarked) [8-Methyl-2,3,3a,4,5,6-hexahydro-1H-pyrazino[3,2,1-jk]-carbazol-Hydrochlorid, reference compound] | 14 | 8,7 | –
